Source: paper PMC11129975, “A first-in-human phase I study of TAS-117, an allosteric AKT inhibitor, in patients with advanced solid tumors” (Cancer Chemotherapy and Pharmacology, 2024)

Assay: Phase I safety: adverse events, adverse drug reactions, DLTs in patients with advanced solid tumors
Type: in vivo, human
Description: This was a phase I, open-label, non-randomized, dose-escalating first-in-human study to evaluate the safety, pharmacokinetics, antitumor activity, pharmacodynamics, and pharmacogenomics of TAS-117 in patients with advanced solid tumors. The study had three phases: a dose escalation phase (DEP), a regimen modification phase (RMP), and a safety assessment phase (SAP). The treatment cycle on each regimen lasted 21 days. The DEP used an accelerated titration and 3 + 3 design. TAS-117 was administered orally once daily (QD) on an empty stomach (1 h before or 2 h after a meal). Dosing was determined based on a 4-week repeated oral-dose toxicology study in monkeys (data on file, Taiho Pharmaceutical Co., Ltd.); the highest non-severely toxic dose was 1.2 mg/kg/day, which was converted to 3.84 mg/body/day, or 2.4 mg/m^2. Therefore, the starting dose was determined to be ≤ 2.4 mg/m^2. At dose level 1, TAS-117 was administered at 2 mg QD (Day − 2), and the dose was increased to 4 mg QD after 2 days (Day 1). The RMP was conducted according to a 3 + 3 design. During this phase, the dose regimen was changed from QD administration to intermittent dosing of daily TAS-117 with 4 days on/3 days off. TAS-117 was administered on an empty stomach. Dose-limiting toxicities (DLTs) were evaluated in Cycle 1 of the DEP and RMP. […] The RD and regimen for the SAP were determined based on the safety, pharmacokinetics, pharmacodynamics, and antitumor activity profile determined in the DEP and RMP. During the SAP, the safety and preliminary efficacy profiles of TAS-117 were assessed at the RD and recommended regimen. Three cohorts were included in this assessment. Cohort 1 included patients with endometrial cancer with a PIK3CA mutation; cohort 2 included patients with endometrial cancer with an AKT1 mutation, AKT1 amplification, or AKT2 amplification; and cohort 3 included patients with ovarian clear cell carcinoma.
The primary endpoints were the proportion of patients who experienced DLTs in Cycle 1 of the DEP and RMP and the incidence of adverse events (AEs) and adverse drug reactions (ADRs) in the SAP. AEs and ADRs were coded using the Medical Dictionary for Regulatory Activities (MedDRA; version 24.1) and graded according to the National Cancer Institute Common Terminology Criteria for Adverse Events (CTCAE; version 4.03). Secondary endpoints were pharmacokinetic findings, changes in the ratio of phosphorylated PRAS40 (pPRAS40)/total PRAS40 from baseline, efficacy, and pharmacogenomics findings.

## C[C@]1(O)C[C@@](N)(c2ccc(-c3nc4n(c3-c3ccccc3)COc3ccncc3-4)cc2)C1 [TAS-117]
SAP n = 43, All grade
  Adverse drug reactions: AST increased: 6 (14.0) n (%)
  Adverse drug reactions: Any events: 43 (100.0) n (%)
  Adverse drug reactions: Blood AP increased: 5 (11.6) n (%)
  Adverse drug reactions: Decreased appetite: 3 (7.0) n (%)
  Adverse drug reactions: Diarrhea: 5 (11.6) n (%)
  Adverse drug reactions: Dry skin: 7 (16.3) n (%)
  Adverse drug reactions: GGT increased: 5 (11.6) n (%)
  Adverse drug reactions: GI disorders: 29 (67.4) n (%)
  Adverse drug reactions: General disorders and administration site conditions: 20 (46.5) n (%)
  Adverse drug reactions: Hyperglycemia: 23 (53.5) n (%)
  Adverse drug reactions: Investigations: 28 (65.1) n (%)
  Adverse drug reactions: Metabolism and nutrition disorders: 26 (60.5) n (%)
  Adverse drug reactions: Nausea: 12 (27.9) n (%)
  Adverse drug reactions: Neutrophil count decreased: 15 (34.9) n (%)
  Adverse drug reactions: Pruritus: 8 (18.6) n (%)
  Adverse drug reactions: Pyrexia: 12 (27.9) n (%)
  Adverse drug reactions: Rash maculo-papular: 40 (93.0) n (%)
  Adverse drug reactions: Skin and SC tissue disorders: 41 (95.3) n (%)
  Adverse drug reactions: Stomatitis: 26 (60.5) n (%)
  Adverse drug reactions: Vomiting: 4 (9.3) n (%)
  Adverse drug reactions: WBC count decreased: 19 (44.2) n (%)
  Adverse events: ALT increased: 8 (18.6) n (%)
  Adverse events: AST increased: 8 (18.6) n (%)
  Adverse events: Any events: 43 (100.0) n (%)
  Adverse events: Blood AP increased: 5 (11.6) n (%)
  Adverse events: Decreased appetite: 7 (16.3) n (%)
  Adverse events: Diarrhea: 9 (20.9) n (%)
  Adverse events: Dry skin: 10 (23.3) n (%)
  Adverse events: GGT increased: 7 (16.3) n (%)
  Adverse events: GI disorders: 35 (81.4) n (%)
  Adverse events: General disorders and administration site conditions: 25 (58.1) n (%)
  Adverse events: Hyperglycemia: 23 (53.5) n (%)
  Adverse events: Investigations: 29 (67.4) n (%)
  Adverse events: Metabolism and nutrition disorders: 28 (65.1) n (%)
  Adverse events: Nausea: 15 (34.9) n (%)
  Adverse events: Neutrophil count decreased: 15 (34.9) n (%)
  Adverse events: Pruritus: 8 (18.6) n (%)
  Adverse events: Pyrexia: 17 (39.5) n (%)
  Adverse events: Rash maculo-papular: 40 (93.0) n (%)
  Adverse events: Skin and SC tissue disorders: 41 (95.3) n (%)
  Adverse events: Stomatitis: 27 (62.8) n (%)
  Adverse events: Vomiting: 8 (18.6) n (%)
  Adverse events: WBC count decreased: 19 (44.2) n (%)
SAP n = 43, ≥ Grade 3
  Adverse drug reactions: ALT increased: 2 (4.7) n (%)
  Adverse drug reactions: AST increased: 0 (0.0) n (%)
  Adverse drug reactions: Any events: 30 (69.8) n (%)
  Adverse drug reactions: Blood AP increased: 0 (0.0) n (%)
  Adverse drug reactions: Decreased appetite: 0 (0.0) n (%)
  Adverse drug reactions: Diarrhea: 0 (0.0) n (%)
  Adverse drug reactions: Dry skin: 0 (0.0) n (%)
  Adverse drug reactions: GGT increased: 4 (9.3) n (%)
  Adverse drug reactions: GI disorders: 1 (2.3) n (%)
  Adverse drug reactions: General disorders and administration site conditions: 0 (0.0) n (%)
  Adverse drug reactions: Hyperglycemia: 7 (16.3) n (%)
  Adverse drug reactions: Investigations: 16 (37.2) n (%)
  Adverse drug reactions: Metabolism and nutrition disorders: 7 (16.3) n (%)
  Adverse drug reactions: Nausea: 0 (0.0) n (%)
  Adverse drug reactions: Neutrophil count decreased: 9 (20.9) n (%)
  Adverse drug reactions: Pruritus: 0 (0.0) n (%)
  Adverse drug reactions: Pyrexia: 0 (0.0) n (%)
  Adverse drug reactions: Rash maculo-papular: 20 (46.5) n (%)
  Adverse drug reactions: Skin and SC tissue disorders: 21 (48.8) n (%)
  Adverse drug reactions: Stomatitis: 1 (2.3) n (%)
  Adverse drug reactions: Vomiting: 0 (0.0) n (%)
  Adverse drug reactions: WBC count decreased: 5 (11.6) n (%)
  Adverse events: ALT increased: 2 (4.7) n (%)
  Adverse events: AST increased: 0 (0.0) n (%)
  Adverse events: Any events: 34 (79.1) n (%)
  Adverse events: Blood AP increased: 0 (0.0) n (%)
  Adverse events: Decreased appetite: 1 (2.3) n (%)
  Adverse events: Diarrhea: 0 (0.0) n (%)
  Adverse events: Dry skin: 0 (0.0) n (%)
  Adverse events: GGT increased: 6 (14.0) n (%)
  Adverse events: GI disorders: 2 (4.7) n (%)
  Adverse events: General disorders and administration site conditions: 0 (0.0) n (%)
  Adverse events: Hyperglycemia: 7 (16.3) n (%)
  Adverse events: Investigations: 18 (41.9) n (%)
  Adverse events: Metabolism and nutrition disorders: 9 (20.9) n (%)
  Adverse events: Nausea: 0 (0.0) n (%)
  Adverse events: Neutrophil count decreased: 9 (20.9) n (%)
  Adverse events: Pruritus: 0 (0.0) n (%)
  Adverse events: Pyrexia: 0 (0.0) n (%)
  Adverse events: Rash maculo-papular: 20 (46.5) n (%)
  Adverse events: Skin and SC tissue disorders: 21 (48.8) n (%)
  Adverse events: Stomatitis: 1 (2.3) n (%)
  Adverse events: Vomiting: 0 (0.0) n (%)
  Adverse events: WBC count decreased: 5 (11.6) n (%)
SAP, cohort 1
  Death (grade 5 respiratory failure, judged unrelated to TAS-117): One patient
Total N = 65, All grade
  Adverse drug reactions: ALT increased: 7 (10.8) n (%)
  Adverse drug reactions: AST increased: 8 (12.3) n (%)
  Adverse drug reactions: Any events: 64 (98.5) n (%)
  Adverse drug reactions: Blood AP increased: 7 (10.8) n (%)
  Adverse drug reactions: Decreased appetite: 10 (15.4) n (%)
  Adverse drug reactions: Diarrhea: 8 (12.3) n (%)
  Adverse drug reactions: Dry skin: 8 (12.3) n (%)
  Adverse drug reactions: GGT increased: 8 (12.3) n (%)
  Adverse drug reactions: GI disorders: 41 (63.1) n (%)
  Adverse drug reactions: General disorders and administration site conditions: 27 (41.5) n (%)
  Adverse drug reactions: Hyperglycemia: 30 (46.2) n (%)
  Adverse drug reactions: Investigations: 39 (60.0) n (%)
  Adverse drug reactions: Metabolism and nutrition disorders: 36 (55.4) n (%)
  Adverse drug reactions: Nausea: 16 (24.6) n (%)
  Adverse drug reactions: Neutrophil count decreased: 21 (32.3) n (%)
  Adverse drug reactions: Pruritus: 13 (20.0) n (%)
  Adverse drug reactions: Pyrexia: 17 (26.2) n (%)
  Adverse drug reactions: Rash maculo-papular: 58 (89.2) n (%)
  Adverse drug reactions: Skin and SC tissue disorders: 61 (93.8) n (%)
  Adverse drug reactions: Stomatitis: 37 (56.9) n (%)
  Adverse drug reactions: Vomiting: 7 (10.8) n (%)
  Adverse drug reactions: WBC count decreased: 25 (38.5) n (%)
  Adverse events: ALT increased: 12 (18.5) n (%)
  Adverse events: AST increased: 13 (20.0) n (%)
  Adverse events: Any events: 64 (98.5) n (%)
  Adverse events: Blood AP increased: 8 (12.3) n (%)
  Adverse events: Decreased appetite: 19 (29.2) n (%)
  Adverse events: Diarrhea: 15 (23.1) n (%)
  Adverse events: Dry skin: 11 (16.9) n (%)
  Adverse events: GGT increased: 11 (16.9) n (%)
  Adverse events: GI disorders: 51 (78.5) n (%)
  Adverse events: General disorders and administration site conditions: 39 (60.0) n (%)
  Adverse events: Hyperglycemia: 30 (46.2) n (%)
  Adverse events: Investigations: 42 (64.6) n (%)
  Adverse events: Metabolism and nutrition disorders: 44 (67.7) n (%)
  Adverse events: Nausea: 21 (32.3) n (%)
  Adverse events: Neutrophil count decreased: 21 (32.3) n (%)
  Adverse events: Pruritus: 13 (20.0) n (%)
  Adverse events: Pyrexia: 24 (36.9) n (%)
  Adverse events: Rash maculo-papular: 58 (89.2) n (%)
  Adverse events: Skin and SC tissue disorders: 61 (93.8) n (%)
  Adverse events: Stomatitis: 38 (58.5) n (%)
  Adverse events: Vomiting: 13 (20.0) n (%)
  Adverse events: WBC count decreased: 25 (38.5) n (%)
Total N = 65, ≥ Grade 3
  Adverse drug reactions: ALT increased: 2 (3.1) n (%)
  Adverse drug reactions: AST increased: 0 (0.0) n (%)
  Adverse drug reactions: Any events: 39 (60.0) n (%)
  Adverse drug reactions: Blood AP increased: 0 (0.0) n (%)
  Adverse drug reactions: Decreased appetite: 0 (0.0) n (%)
  Adverse drug reactions: Diarrhea: 0 (0.0) n (%)
  Adverse drug reactions: Dry skin: 0 (0.0) n (%)
  Adverse drug reactions: GGT increased: 5 (7.7) n (%)
  Adverse drug reactions: GI disorders: 1 (1.5) n (%)
  Adverse drug reactions: General disorders and administration site conditions: 0 (0.0) n (%)
  Adverse drug reactions: Hyperglycemia: 11 (16.9) n (%)
  Adverse drug reactions: Investigations: 20 (30.8) n (%)
  Adverse drug reactions: Metabolism and nutrition disorders: 11 (16.9) n (%)
  Adverse drug reactions: Nausea: 0 (0.0) n (%)
  Adverse drug reactions: Neutrophil count decreased: 9 (13.8) n (%)
  Adverse drug reactions: Pruritus: 0 (0.0) n (%)
  Adverse drug reactions: Pyrexia: 0 (0.0) n (%)
  Adverse drug reactions: Rash maculo-papular: 23 (35.4) n (%)
  Adverse drug reactions: Skin and SC tissue disorders: 24 (36.9) n (%)
  Adverse drug reactions: Stomatitis: 1 (1.5) n (%)
  Adverse drug reactions: Vomiting: 0 (0.0) n (%)
  Adverse drug reactions: WBC count decreased: 8 (12.3) n (%)
  Adverse events: ALT increased: 2 (3.1) n (%)
  Adverse events: AST increased: 1 (1.5) n (%)
  Adverse events: Any events: 44 (67.7) n (%)
  Adverse events: Blood AP increased: 1 (1.5) n (%)
  Adverse events: Decreased appetite: 1 (1.5) n (%)
  Adverse events: Diarrhea: 1 (1.5) n (%)
  Adverse events: Dry skin: 0 (0.0) n (%)
  Adverse events: GGT increased: 8 (12.3) n (%)
  Adverse events: GI disorders: 4 (6.2) n (%)
  Adverse events: General disorders and administration site conditions: 0 (0.0) n (%)
  Adverse events: Hyperglycemia: 11 (16.9) n (%)
  Adverse events: Investigations: 24 (36.9) n (%)
  Adverse events: Metabolism and nutrition disorders: 13 (20.0) n (%)
  Adverse events: Nausea: 0 (0.0) n (%)
  Adverse events: Neutrophil count decreased: 9 (13.8) n (%)
  Adverse events: Pruritus: 0 (0.0) n (%)
  Adverse events: Pyrexia: 0 (0.0) n (%)
  Adverse events: Rash maculo-papular: 23 (35.4) n (%)
  Adverse events: Skin and SC tissue disorders: 24 (36.9) n (%)
  Adverse events: Stomatitis: 1 (1.5) n (%)
  Adverse events: Vomiting: 0 (0.0) n (%)
  Adverse events: WBC count decreased: 8 (12.3) n (%)
All treated patients
  Patients who developed AEs related to skin disorders: 93.8%
  Patients with maculopapular rash: 89.2%
Dose level 4 (24 mg intermittent administration)
  Patients who discontinued because of AEs: four patients
Intermittent dosing (4 days on/3 days off)
  Recommended dose (RD): 24 mg
Once daily up to 16 mg/day and intermittent dosing of 24 mg/day
  Tolerability: well tolerated
Printed as % of patients with this AE
  Maculopapular rash grade ≥ 3: 35.4%
